# Results as given in patent US20220151229A1, “Synergistic Herbicidal Combinations” (Clariant International Ltd., priority 2019, published 2022).
# Legend:
# Type in all cases: in vivo
# Lolium perenne - LOLPE = experiment: Greenhouse post-emergence herbicide trial, Lolium perenne; conditions: 200 L/ha, Iodosulfuron-methyl-sodium 10 g Al/ha
# Source text: (§1) Standard post emergence herbicide application procedures were used, as described below, to apply inventive compounds in combination with sulfonylurea herbicides.
# (§2) Seed of monocotyledonous and dicotyledonous harmful plants such as Brassica napus (BRSNW) Abutilon theophrasti (ABUTH), Alopecurus myosuroides (ALOMY), Amaranthus retroflexus (AMARE), Digitaria Sanguinalis (DIGSA), Echinochloa crus-galli (ECHCG), Erigeron canadensis (ERICA), Galium aparine (GALAP), Lolium perenne (LOLPE), Sectaria viridis (SETVI), Solanun nigrum (SOLNI), Viola arvensis (VIOAR) were sowed in 18 cm^2 pots. The plants were placed in a greenhouse under controlled environmental conditions, and sub-irrigation. About one week after emergence, seedlings were thinned as needed, including removal of any unhealthy or abnormal plants, to create a uniform series of test pots.
# (§3) The plants were maintained for the duration of the test in the greenhouse, where they received a mean of 70 μmol m-2 s-1 of light per day/night. Temperatures averages about 24° C. during the day and about 20° C. during the night. Plants were sub-irrigated throughout the test to ensure adequate soil moisture levels.
# (§4) Pots were assigned to different treatment in a randomized experimental design. A set of pots was left untreated as a reference against which effects of the treatments could later be evaluated. Application of tested formulations was made in a spray cabin model 01S-15E designed by CheckTec using the following parameters: • Two edge nozzle Lechler OC2, 200 L/ha, 3 bars. • Two edge nozzle Lechler OC3, 500 L/ha, 3 bars.
# (§5) The distance of the nozzle from the plants was between 50 to 53 cm. and the nozzle spacing was 50 cm.
# (§6) After treatment, pots were returned to the greenhouse until ready for evaluation. Evaluations were performed at different times after application (DAT: days after treatment), depending on the experiment.
# (§7) For evaluation of herbicidal effectiveness, all plants in the test were examined by a single technician, who recorded percent control, a visual measurement of the effectiveness of each treatment by comparison with untreated plants. […] The reported % control values represent the average for all replicates of each treatment.
# (§8) Iodosulfuron-methyl-sodium and Nicosulfuron were applied as dilutions of the active ingredient in water.
# Brassica napus - BRSNW = experiment: Greenhouse post-emergence herbicide trial, Brassica napus; conditions: 200 L/ha, Iodosulfuron-methyl-sodium 10 g Al/ha
# Source text: as §1, §2, §3, §4, §5, §6, §7, §8
# Solanum nigrum - SOLNI = experiment: Greenhouse post-emergence herbicide trial, Solanum nigrum; conditions: Iodosulfuron-methyl-sodium 10 g Al/ha
# Source text: as §1, §2, §3, §4, §5, §6, §7, §8
# Galium aparine - GALAP = experiment: Greenhouse post-emergence herbicide trial, Galium aparine; conditions: 200 L/ha, Nicosulfuron 40 g Al/ha
# Source text: as §1, §2, §3, §4, §5, §6, §7, §8
# Sectaria Viridis - SETVI = experiment: Greenhouse post-emergence herbicide trial, Sectaria Viridis; conditions: 200 L/ha, Nicosulfuron 40 g Al/ha
# Source text: as §1, §2, §3, §4, §5, §6, §7, §8
smiles,measurement,setting,value
"COC(=O)c1ccc(I)cc1S(=O)(=O)[N-]C(=O)Nc1nc(C)nc(OC)n1.[Na+] [Iodosulfuron-methyl-sodium, reference compound]",Effectiveness control,Lolium perenne - LOLPE; 1 DAT,0.00%
same,Effectiveness control,Lolium perenne - LOLPE; 2 DAT,0.00%
same,Effectiveness control,Lolium perenne - LOLPE; 7 DAT,0.00%
same,Effectiveness control,Lolium perenne - LOLPE; 10 DAT,0.00%
same,Effectiveness control,Lolium perenne - LOLPE; 16 DAT,0.00%
same,Effectiveness control,Lolium perenne - LOLPE; 22 DAT,0.00%
same,Effectiveness control,Lolium perenne - LOLPE; 28 DAT,0.00%
same,Effectiveness control,Brassica napus - BRSNW; 1 DAT,0.00%
same,Effectiveness control,Brassica napus - BRSNW; 2 DAT,0.00%
same,Effectiveness control,Brassica napus - BRSNW; 7 DAT,6.75%
same,Effectiveness control,Brassica napus - BRSNW; 10 DAT,8.50%
same,Effectiveness control,Brassica napus - BRSNW; 16 DAT,50.75%
same,Effectiveness control,Brassica napus - BRSNW; 22 DAT,99.00%
same,Effectiveness control,Brassica napus - BRSNW; 28 DAT,99.00%
same,Effectiveness control,"Solanum nigrum - SOLNI; 200 L/ha, 1 DAT",0.00%
same,Effectiveness control,"Solanum nigrum - SOLNI; 200 L/ha, 2 DAT",0.00%
same,Effectiveness control,"Solanum nigrum - SOLNI; 200 L/ha, 7 DAT",0.00%
same,Effectiveness control,"Solanum nigrum - SOLNI; 200 L/ha, 15 DAT",12.50%
same,Effectiveness control,"Solanum nigrum - SOLNI; 200 L/ha, 21 DAT",13.75%
same,Effectiveness control,"Solanum nigrum - SOLNI; 500 L/ha, 1 DAT",0.00%
same,Effectiveness control,"Solanum nigrum - SOLNI; 500 L/ha, 2 DAT",0.000%
same,Effectiveness control,"Solanum nigrum - SOLNI; 500 L/ha, 7 DAT",5.00%
same,Effectiveness control,"Solanum nigrum - SOLNI; 500 L/ha, 15 DAT",25.00%
same,Effectiveness control,"Solanum nigrum - SOLNI; 500 L/ha, 21 DAT",47.50%
"COc1cc(OC)nc(NC(=O)NS(=O)(=O)c2ncccc2C(=O)N(C)C)n1 [Nicosulfuron, nicosulfuron, reference compound]",Effectiveness control,Galium aparine - GALAP; 1 DAT,0.00%
same,Effectiveness control,Galium aparine - GALAP; 2 DAT,0.00%
same,Effectiveness control,Galium aparine - GALAP; 7 DAT,3.00%
same,Effectiveness control,Galium aparine - GALAP; 10 DAT,10.00%
same,Effectiveness control,Galium aparine - GALAP; 16 DAT,12.75%
same,Effectiveness control,Galium aparine - GALAP; 22 DAT,12.75%
same,Effectiveness control,Galium aparine - GALAP; 28 DAT,12.75%
same,Effectiveness control,Sectaria Viridis - SETVI; 1 DAT,0.00%
same,Effectiveness control,Sectaria Viridis - SETVI; 2 DAT,0.00%
same,Effectiveness control,Sectaria Viridis - SETVI; 7 DAT,5.00%
same,Effectiveness control,Sectaria Viridis - SETVI; 10 DAT,7.00%
same,Effectiveness control,Sectaria Viridis - SETVI; 16 DAT,10.75%
same,Effectiveness control,Sectaria Viridis - SETVI; 22 DAT,7.75%
same,Effectiveness control,Sectaria Viridis - SETVI; 28 DAT,7.00%
